Source: US11986471B2, “Compounds and methods of use” (Tango Therapeutics, Inc., priority 2018, dated 2024)

Columns and labels:
PRMT5 [1] = biological target: T1, PRMT5 (Homo sapiens, UniProt O14744); test: PRMT5 IC50 assay in the presence of MTA as cofactor; format: biochemical; conditions: for IC50: PRMT5, MTA as cofactor
T1 construct: purchased Viva (custom protein)
Method in brief: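 IC50 against PRMT5 determined with SAM as cofactor, with no cofactor, and with MTA as cofactor. Ki derived as IC50/1.5 for the SAM assay and IC50/13.5 for the MTA assay; SAM Ki to MTA Ki ratio also reported.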

PRMT5 [2] = biological target: T1, PRMT5; test: PRMT5 IC50 assay in the presence of SAM as cofactor; format: biochemical
Method in brief: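 Results given as IC50 (μM), from which Ki follows by dividing by 1.5 in the SAM condition or by 13.5 in the MTA condition. The ratio of SAM Ki to MTA Ki indicates MTA-cooperative preference.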

HAP1 MTAP-deleted = test: SDMA in-cell western assay, HAP1 MTAP-deleted cell line; format: cell-based; conditions: for IC50: Homo sapiens, HAP1 MTAP-deleted cell line; for MTAP Intact/Deleted Ratio: IC50 ratio HAP1 MTAP-intact / HAP1 MTAP-deleted
Method in brief: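 Symmetric dimethylarginine (SDMA) levels were measured by in-cell western in MTAP-null HAP1 cells, one half of an MTAP-isogenic pair whose partner line expresses endogenous MTAP. Compound potency is reported as IC50.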

HAP1 MTAP-intact = test: SDMA in-cell western assay, HAP1 MTAP-intact cell line; format: cell-based; conditions: Homo sapiens
Method in brief: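 Symmetric dimethylarginine (SDMA) levels were measured by in-cell western in an isogenic HAP1 pair, one expressing endogenous MTAP and one MTAP-null, and IC50 values were derived for each line. Compounds whose IC50 ratio between the lines is 3-fold or more are classed as MTAP-selective.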

PRMT5 [3] = biological target: T1, PRMT5; test: PRMT5 IC50 assay with no cofactor; format: biochemical
Method in brief: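 Enzyme: human PRMT5. Conditions: plus SAM, plus MTA, or cofactor-free. Output: IC50 (μM); Ki via IC50/1.5 (SAM) or IC50/13.5 (MTA).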

[4] = ratio between the Ki in the presence of SAM and the Ki in the presence of MTA
[5] = ratio between Ki in the presence of SAM and Ki in the presence of MTA

T1 sequence (O14744 whole entry): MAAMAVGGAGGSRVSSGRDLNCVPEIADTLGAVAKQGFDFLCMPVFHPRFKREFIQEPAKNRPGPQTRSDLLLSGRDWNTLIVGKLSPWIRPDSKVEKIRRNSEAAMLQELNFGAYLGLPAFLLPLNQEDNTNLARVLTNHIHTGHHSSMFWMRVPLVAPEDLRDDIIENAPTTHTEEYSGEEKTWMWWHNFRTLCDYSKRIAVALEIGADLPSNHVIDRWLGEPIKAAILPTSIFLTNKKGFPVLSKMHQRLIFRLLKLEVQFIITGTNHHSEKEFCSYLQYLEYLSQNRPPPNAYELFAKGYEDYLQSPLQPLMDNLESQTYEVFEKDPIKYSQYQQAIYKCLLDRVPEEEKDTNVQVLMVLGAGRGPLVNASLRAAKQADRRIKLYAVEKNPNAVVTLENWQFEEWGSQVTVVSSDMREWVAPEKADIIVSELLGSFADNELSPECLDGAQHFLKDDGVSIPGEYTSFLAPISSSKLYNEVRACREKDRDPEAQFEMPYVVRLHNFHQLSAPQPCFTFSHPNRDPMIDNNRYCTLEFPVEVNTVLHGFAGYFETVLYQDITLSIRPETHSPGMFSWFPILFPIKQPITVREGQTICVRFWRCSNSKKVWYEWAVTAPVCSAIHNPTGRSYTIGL
T1 sequence (Q9BQA1 whole entry partner): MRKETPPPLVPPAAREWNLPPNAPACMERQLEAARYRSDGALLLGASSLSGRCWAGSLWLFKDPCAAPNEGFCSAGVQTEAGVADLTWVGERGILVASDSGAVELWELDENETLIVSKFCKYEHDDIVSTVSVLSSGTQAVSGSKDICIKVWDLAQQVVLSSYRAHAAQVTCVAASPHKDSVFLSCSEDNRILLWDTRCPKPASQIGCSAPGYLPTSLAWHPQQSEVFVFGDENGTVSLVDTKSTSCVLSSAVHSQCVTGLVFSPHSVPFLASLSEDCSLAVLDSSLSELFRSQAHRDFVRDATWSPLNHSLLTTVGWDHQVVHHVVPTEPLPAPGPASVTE

Row | Compound | IC50 (PRMT5 [1]) [nM] | SAM/MTA Ratio (PRMT5 [1]; [4]) | IC50 (PRMT5 [2]) [nM] | IC50 (HAP1 MTAP-deleted) [nM] | MTAP Intact/Deleted Ratio (HAP1 MTAP-deleted) | IC50 (HAP1 MTAP-intact) [nM] | IC50 (PRMT5 [3]) [nM] | SAM/MTA Ratio (PRMT5 [1]; [5]) | IC50 (PRMT5 [3]; read-out: No Co-factor IC50) [nM]
1 | Cc1c(OCc2cnco2)ccc2c1CCN(C[C@@H](O)CNC(=O)c1ccnc(NC3CCN(C(=O)C4CC4)CC3)c1)C2 [Compound 484, (S)-2-((1-(cyclopropanecarbonyl)piperidin-4-yl)amino)-N-(2-hydroxy-3-(5-methyl-6-(oxazol-5-ylmethoxy)-3N-dihydroisoquinolin-2(1H)-yl)propyl)isonicotinamide] | 50 to 500 | A (a Ki ratio greater than or equal to 10 fold between the Ki in the presence of SAM and the Ki in the presence of MTA) | 50 to 500 | 1000 to 10000 | B* (an IC50 ratio greater than or equal to 3 fold but lower than 10 fold between the IC50 in the HAP1 MTAP-intact cell line and the HAP1 MTAP-deleted cell line) | ≥ 10000 | 500 to 5000 | – | –
2 | Cc1ncoc1COc1ccc2c(c1)CCN(C[C@@H](O)CNC(=O)c1cc(NC3CCC3)ncc1Cl)C2 [Compound 607, 5-chloro-2-(cyclobutylamino)-N-[(2S)-2-hydroxy-3-[6-[(4-methyloxazol-5-yl)methoxy]-3,4-dihydro-1H-isoquinolin-2-yl]propyl]pyridine-4-carboxamide] | 50 to 500 | A (a Ki ratio greater than or equal to 10 fold between the Ki in the presence of SAM and the Ki in the presence of MTA) | 50 to 500 | < 1000 | C* (an IC50 ratio of less than 3 fold between the IC50 in the HAP1 MTAP-intact cell line and the HAP1 MTAP-deleted cell line) | < 1000 | ≥ 5000 | – | –
3 | CC(=O)N1CCC(Nc2cc(C(=O)NC[C@H](O)CN3CCc4nc(OCc5ocnc5C)ccc4C3)ccn2)CC1 [Compound 617, 2-[(1-acetyl-4-piperidyl)amino]-N-[(2S)-2-hydroxy-3-[2-[(4-methyloxazol-5-yl)methoxy]-7,8-dihydro-5H-1,6-naphthyridin-6-yl]propyl]pyridine-4-carboxamide] | 50 to 500 | – | 50 to 500 | 1000 to 10000 | C* (an IC50 ratio of less than 3 fold between the IC50 in the HAP1 MTAP-intact cell line and the HAP1 MTAP-deleted cell line) | ≥ 10000 | 500 to 5000 | – | –
4 | CC(=O)N1CCC(Nc2cc(C(=O)NC[C@H](O)CN3CCc4cc(OCc5ocnc5C)ccc4C3)cc(N3CCCCC3)c2)CC1 (single isomer, unassigned) [Compound 631] | 50 to 500 | – | 50 to 500 | < 1000 | B* (an IC50 ratio greater than or equal to 3 fold but lower than 10 fold between the IC50 in the HAP1 MTAP-intact cell line and the HAP1 MTAP-deleted cell line) | 1000 to 10000 | – | A (a Ki ratio greater than or equal to 10 fold between the Ki in the presence of SAM and the Ki in the presence of MTA) | ≥ 5000
5 | Cc1ncoc1COc1ccc2c(c1)CCN(C[C@@H](O)CNC(=O)c1cc(NC3CCC3)nc(N(C)C3CCC3)c1)C2 [Compound 635] | 50 to 500 | – | 50 to 500 | < 1000 | A* (an IC50 ratio greater than or equal to 10 fold between the IC50 in the HAP1 MTAP-intact cell line and the HAP1 MTAP-deleted cell line) | 1000 to 10000 | – | A (a Ki ratio greater than or equal to 10 fold between the Ki in the presence of SAM and the Ki in the presence of MTA) | ≥ 5000
6 | Cc1ncoc1COc1ccc2c(c1)CCN(C[C@@H](O)CNC(=O)c1cc(NC3CC4(CCC4)C3)nc(N3CCN(C(=O)C4CC4)CC3)c1)C2 [Compound 610, (S)-2-(4-(cyclopropanecarbonyl)piperazin-1-yl)-N-(2-hydroxy-3-(6-((4-methyloxazol-5-yl)methoxy)-3,4-dihydroisoquinolin-2(1H)-yl)propyl)-6-(spiro[3.3]heptan-2-ylamino)isonicotinamide] | < 50 | A (a Ki ratio greater than or equal to 10 fold between the Ki in the presence of SAM and the Ki in the presence of MTA) | 50 to 500 | 1000 to 10000 | C* (an IC50 ratio of less than 3 fold between the IC50 in the HAP1 MTAP-intact cell line and the HAP1 MTAP-deleted cell line) | 1000 to 10000 | 50 to 500 | – | –
7 | CCN1CCN(c2nc(NC3COC3)cc(C(=O)NC[C@H](O)CN3CCc4cc(OCc5ocnc5C)ccc4C3)n2)CC1 [Compound 544, 2-(4-ethylpiperazin-1-yl)-N-[(2S)-2-hydroxy-3-(6-[(4-methyl-1,3-oxazol-5-yl)methoxy]-1,2,3,4-tetrahydroisoquinolin-2-yl}propyl]-6-[(oxetan-3-yl)amino]pyrimidine-4-carboxamide] | 50 to 500 | A (a Ki ratio greater than or equal to 10 fold between the Ki in the presence of SAM and the Ki in the presence of MTA) | 50 to 500 | 1000 to 10000 | B* (an IC50 ratio greater than or equal to 3 fold but lower than 10 fold between the IC50 in the HAP1 MTAP-intact cell line and the HAP1 MTAP-deleted cell line) | 1000 to 10000 | 500 to 5000 | – | –
8 | Cc1ncoc1COc1ccc2c(c1)CCN(C[C@@H](O)CNC(=O)c1cc(NC3COC3)nc(N3CCCCC3)n1)C2 [Compound 405, N-[(2S)-2-hydroxy-3-{6-[(4-methyl-1,3-oxazol-5-yl)methoxy]-1,2,3,4-tetrahydroisoquinolin-2-yl}propyl]-6-[(oxetan-3-yl)amino]-2-(piperidin-1-yl)pyrimidine-4-carboxamide] | 50 to 500 | – | 50 to 500 | < 1000 | B* (an IC50 ratio greater than or equal to 3 fold but lower than 10 fold between the IC50 in the HAP1 MTAP-intact cell line and the HAP1 MTAP-deleted cell line) | < 1000 | – | A (a Ki ratio greater than or equal to 10 fold between the Ki in the presence of SAM and the Ki in the presence of MTA) | 500 to 5000
9 | Cc1ncoc1COc1ccc2c(c1C)CCN(C[C@@H](O)CNC(=O)c1cc(NC3COC3)nc(N3CCN(C)CC3)n1)C2 [Compound 456, N-[(2S)-2-hydroxy-3-{5-methyl-6-[(4-methyl-1,3-oxazol-5-yl)methoxy]-1,2,3,4-tetrahydroisoquinolin-2-yl}propyl]-2-(4-methylpiperazin-1-yl)-6-[(oxetan-3-yl)amino]pyrimidine-4-carboxamide] | 50 to 500 | A (a Ki ratio greater than or equal to 10 fold between the Ki in the presence of SAM and the Ki in the presence of MTA) | 50 to 500 | 1000 to 10000 | C* (an IC50 ratio of less than 3 fold between the IC50 in the HAP1 MTAP-intact cell line and the HAP1 MTAP-deleted cell line) | ≥ 10000 | ≥ 5000 | – | –
10 | CC(=O)N1CCN(c2cc(C(=O)NC[C@H](O)CN3CCc4c(ccc(OCc5ocnc5C)c4C)C3)cc(NC3CCC3)n2)CC1 [Compound 502, 2-(4-acetylpiperazin-1-yl)-6-(cyclobutylamino)-N-[(2S)-2-hydroxy-3-{5-methyl-6-[(4-methyl-1,3-oxazol-5-yl)methoxy]-1,2,3,4-tetrahydroisoquinolin-2-yl}propyl]pyridine-4-carboxamide] | 50 to 500 | A (a Ki ratio greater than or equal to 10 fold between the Ki in the presence of SAM and the Ki in the presence of MTA) | 50 to 500 | < 1000 | A* (an IC50 ratio greater than or equal to 10 fold between the IC50 in the HAP1 MTAP-intact cell line and the HAP1 MTAP-deleted cell line) | 1000 to 10000 | 500 to 5000 | – | –
11 | Cc1ncoc1COc1ccc2c(c1C)CCN(C[C@@H](O)CNC(=O)c1cc(NC3CCC3)nc(N3CCN(C(=O)C(C)C)CC3)c1)C2 [Compound 459, 2-(cyclobutylamino)-N-[(2S)-2-hydroxy-3-{5-methyl-6-[(4-methyl-1,3-oxazol-5-yl)methoxy]-1,2,3,4-tetrahydroisoquinolin-2-yl}propyl]-6-[4-(2-methylpropanoyl)piperazin-1-yl]pyridine-4-carboxamide] | 50 to 500 | A (a Ki ratio greater than or equal to 10 fold between the Ki in the presence of SAM and the Ki in the presence of MTA) | 50 to 500 | < 1000 | A* (an IC50 ratio greater than or equal to 10 fold between the IC50 in the HAP1 MTAP-intact cell line and the HAP1 MTAP-deleted cell line) | 1000 to 10000 | 500 to 5000 | – | –
12 | Cc1c(OCc2ccnn2C)ccc2c1CCN(C[C@@H](O)CNC(=O)c1ccnc(NC3CCCCC3)c1)C2 [Compound 278, (S)-2-(cyclohexylamino)-N-(2-hydroxy-3-(5-methyl-6-((1-methyl-1H-pyrazol-5-yl)methoxy)-3N-dihydroisoquinolin-2(1H)-yl)propyl)isonicotinamide] | 500 to 5000 | – | 500 to 5000 | ≥ 10000 | C* (an IC50 ratio of less than 3 fold between the IC50 in the HAP1 MTAP-intact cell line and the HAP1 MTAP-deleted cell line) | ≥ 10000 | – | A (a Ki ratio greater than or equal to 10 fold between the Ki in the presence of SAM and the Ki in the presence of MTA) | ≥ 5000
